Experimental data: the kinase profiling compilation of Christmann-Franck et al. (2016)

Key:
Test in all cases: KINOMEscan competition binding
Conditions in all cases: compound 10.0 µM
[1] = molecular target: EPHA7 (human) (UniProt Q15375)
[2] = molecular target: LCK (human) (UniProt P06239)
[3] = molecular target: BMX (human) (UniProt P51813)
[4] = molecular target: MELK (human) (UniProt Q14680)
[5] = molecular target: PIP5K1C (human) (UniProt O60331)
[6] = molecular target: ZAP70 (human) (UniProt P43403)
[7] = molecular target: NEK9 (human) (UniProt Q8TD19)
[8] = molecular target: FLT3 (human) (UniProt P36888)
[9] = molecular target: ULK1 (human) (UniProt O75385)
[10] = molecular target: NEK1 (human) (UniProt Q96PY6)
[11] = molecular target: STK4 (human) (UniProt Q13043)
[12] = molecular target: MYLK4 (human) (UniProt Q86YV6)
[13] = molecular target: VRK2 (human) (UniProt Q86Y07)
[14] = molecular target: PRKCE (human) (UniProt Q02156)
[15] = molecular target: MAPK13 (human) (UniProt O15264)
[16] = molecular target: PIM3 (human) (UniProt Q86V86)
[17] = molecular target: CDK4 CCND3 (human) (UniProt P11802+P30281)
[18] = test system: KIT (human), P10721 [L576P]
[19] = molecular target: PDPK1 (human) (UniProt O15530)
[20] = molecular target: MINK1 (human) (UniProt Q8N4C8)
[21] = test system: EGFR (human), P00533 [T790M]
[22] = molecular target: GRK1 (human) (UniProt Q15835)
[23] = molecular target: PI4KB (human) (UniProt Q9UBF8)
[24] = molecular target: TNIK (human) (UniProt Q9UKE5)
[25] = molecular target: PIP4K2C (human) (UniProt Q8TBX8)
[26] = molecular target: PRKAA2 (human) (UniProt P54646)
[27] = molecular target: LYN (human) (UniProt P07948)
[28] = test system: MET (human), P08581 [M1250T]
[29] = molecular target: CAMK2A (human) (UniProt Q9UQM7)
[30] = molecular target: CDK11B (human) (UniProt P21127)
[31] = molecular target: TEC (human) (UniProt P42680)
[32] = molecular target: BMPR1A (human) (UniProt P36894)
[33] = molecular target: MAPKAPK2 (human) (UniProt P49137)
[34] = molecular target: ERN1 (human) (UniProt O75460)
[35] = molecular target: RET (human) (UniProt P07949)
[36] = molecular target: MAP2K5 (human) (UniProt Q13163)
[37] = molecular target: PRPF4B (human) (UniProt Q13523)
[38] = molecular target: MAPKAPK5 (human) (UniProt Q8IW41)
[39] = test system: KIT (human), P10721 [A829P]
[40] = test system: KIT (human), P10721 [D816V]
[41] = molecular target: SRPK3 (human) (UniProt Q9UPE1)

Chain of PIP5K1C (human) (O60331 whole entry, looked up): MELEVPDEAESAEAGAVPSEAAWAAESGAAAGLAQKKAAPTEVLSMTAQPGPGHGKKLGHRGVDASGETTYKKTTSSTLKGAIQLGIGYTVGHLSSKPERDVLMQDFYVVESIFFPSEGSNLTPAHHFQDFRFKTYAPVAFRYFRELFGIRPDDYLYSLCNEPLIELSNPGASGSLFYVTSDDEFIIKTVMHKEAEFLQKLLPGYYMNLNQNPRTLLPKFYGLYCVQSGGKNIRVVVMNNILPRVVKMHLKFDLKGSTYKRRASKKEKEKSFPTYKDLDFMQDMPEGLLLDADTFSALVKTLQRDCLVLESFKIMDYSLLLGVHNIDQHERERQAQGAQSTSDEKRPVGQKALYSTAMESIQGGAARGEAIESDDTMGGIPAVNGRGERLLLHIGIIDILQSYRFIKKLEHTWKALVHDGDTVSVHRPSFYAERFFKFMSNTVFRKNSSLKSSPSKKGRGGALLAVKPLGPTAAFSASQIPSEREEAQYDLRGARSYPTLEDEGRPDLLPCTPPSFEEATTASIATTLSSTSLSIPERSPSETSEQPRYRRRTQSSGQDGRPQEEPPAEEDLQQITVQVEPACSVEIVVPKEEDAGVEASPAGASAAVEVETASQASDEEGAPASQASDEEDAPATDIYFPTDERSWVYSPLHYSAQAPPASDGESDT
Chain of NEK1 (human) (Q96PY6 whole entry, looked up): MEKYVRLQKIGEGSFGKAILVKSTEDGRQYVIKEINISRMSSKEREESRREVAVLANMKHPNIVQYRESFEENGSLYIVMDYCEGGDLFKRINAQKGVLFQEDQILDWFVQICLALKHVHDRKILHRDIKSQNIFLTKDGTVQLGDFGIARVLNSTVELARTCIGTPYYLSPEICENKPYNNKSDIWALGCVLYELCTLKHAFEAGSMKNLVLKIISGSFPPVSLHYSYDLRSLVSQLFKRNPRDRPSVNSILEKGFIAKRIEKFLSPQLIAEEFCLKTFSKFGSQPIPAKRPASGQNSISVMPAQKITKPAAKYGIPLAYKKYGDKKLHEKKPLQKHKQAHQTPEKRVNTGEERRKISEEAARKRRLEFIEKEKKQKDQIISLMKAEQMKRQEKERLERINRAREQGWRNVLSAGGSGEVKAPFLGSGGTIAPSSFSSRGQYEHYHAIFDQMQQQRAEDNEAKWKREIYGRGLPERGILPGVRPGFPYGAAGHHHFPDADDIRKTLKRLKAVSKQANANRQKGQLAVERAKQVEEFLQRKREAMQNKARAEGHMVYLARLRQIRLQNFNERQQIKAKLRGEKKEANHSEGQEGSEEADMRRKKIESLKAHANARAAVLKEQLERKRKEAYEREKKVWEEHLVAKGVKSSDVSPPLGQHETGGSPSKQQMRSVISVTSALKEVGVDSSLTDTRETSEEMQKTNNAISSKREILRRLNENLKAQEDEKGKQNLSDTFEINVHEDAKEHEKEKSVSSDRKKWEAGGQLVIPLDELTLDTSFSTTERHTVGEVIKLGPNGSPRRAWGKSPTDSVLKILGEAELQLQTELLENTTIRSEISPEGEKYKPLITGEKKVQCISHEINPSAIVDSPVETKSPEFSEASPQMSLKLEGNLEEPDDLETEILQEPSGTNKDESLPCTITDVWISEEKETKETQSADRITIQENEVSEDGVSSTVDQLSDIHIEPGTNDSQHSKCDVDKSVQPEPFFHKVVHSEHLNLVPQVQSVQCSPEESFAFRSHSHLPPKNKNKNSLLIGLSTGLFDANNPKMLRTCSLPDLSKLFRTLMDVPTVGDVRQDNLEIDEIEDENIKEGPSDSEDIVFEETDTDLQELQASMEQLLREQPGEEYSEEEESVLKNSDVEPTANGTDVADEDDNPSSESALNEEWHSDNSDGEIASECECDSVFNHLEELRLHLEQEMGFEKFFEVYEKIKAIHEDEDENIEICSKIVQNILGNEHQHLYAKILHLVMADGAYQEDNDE
Chain of VRK2 (human) (Q86Y07 whole entry, looked up): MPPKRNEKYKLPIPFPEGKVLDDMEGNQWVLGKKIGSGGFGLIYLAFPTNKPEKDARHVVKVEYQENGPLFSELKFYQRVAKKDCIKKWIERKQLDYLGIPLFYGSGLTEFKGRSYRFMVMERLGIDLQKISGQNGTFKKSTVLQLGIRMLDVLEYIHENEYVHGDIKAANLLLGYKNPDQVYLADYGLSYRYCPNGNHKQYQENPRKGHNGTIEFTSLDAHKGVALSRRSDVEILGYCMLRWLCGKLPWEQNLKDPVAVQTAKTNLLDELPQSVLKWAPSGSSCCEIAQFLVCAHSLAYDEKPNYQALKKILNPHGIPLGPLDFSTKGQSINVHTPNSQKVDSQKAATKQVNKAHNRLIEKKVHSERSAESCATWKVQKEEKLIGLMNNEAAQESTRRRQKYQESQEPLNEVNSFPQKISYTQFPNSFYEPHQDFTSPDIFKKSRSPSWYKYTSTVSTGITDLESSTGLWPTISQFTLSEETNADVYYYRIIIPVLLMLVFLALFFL
Chain of PRKCE (human) (Q02156 whole entry, looked up): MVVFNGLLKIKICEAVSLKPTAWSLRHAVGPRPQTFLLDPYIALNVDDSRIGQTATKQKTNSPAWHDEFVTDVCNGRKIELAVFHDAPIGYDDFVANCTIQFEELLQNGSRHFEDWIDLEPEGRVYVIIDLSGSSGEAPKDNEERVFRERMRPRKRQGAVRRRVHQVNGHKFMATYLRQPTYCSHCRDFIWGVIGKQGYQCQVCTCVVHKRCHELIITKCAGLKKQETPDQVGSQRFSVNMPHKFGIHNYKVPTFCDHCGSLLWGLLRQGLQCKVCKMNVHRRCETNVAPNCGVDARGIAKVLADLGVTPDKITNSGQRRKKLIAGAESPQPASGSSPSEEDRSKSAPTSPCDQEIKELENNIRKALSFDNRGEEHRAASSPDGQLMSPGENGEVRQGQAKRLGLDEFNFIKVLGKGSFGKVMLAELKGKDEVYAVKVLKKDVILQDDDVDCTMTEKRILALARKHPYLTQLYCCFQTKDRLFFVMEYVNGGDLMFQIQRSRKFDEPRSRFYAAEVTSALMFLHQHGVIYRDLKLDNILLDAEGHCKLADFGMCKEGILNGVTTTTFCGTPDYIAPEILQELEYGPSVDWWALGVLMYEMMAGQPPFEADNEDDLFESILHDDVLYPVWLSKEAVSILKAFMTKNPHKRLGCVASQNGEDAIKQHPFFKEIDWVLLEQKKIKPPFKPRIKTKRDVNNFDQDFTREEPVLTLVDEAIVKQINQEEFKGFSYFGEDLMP
Chain of MAPK13 (human) (O15264 whole entry, looked up): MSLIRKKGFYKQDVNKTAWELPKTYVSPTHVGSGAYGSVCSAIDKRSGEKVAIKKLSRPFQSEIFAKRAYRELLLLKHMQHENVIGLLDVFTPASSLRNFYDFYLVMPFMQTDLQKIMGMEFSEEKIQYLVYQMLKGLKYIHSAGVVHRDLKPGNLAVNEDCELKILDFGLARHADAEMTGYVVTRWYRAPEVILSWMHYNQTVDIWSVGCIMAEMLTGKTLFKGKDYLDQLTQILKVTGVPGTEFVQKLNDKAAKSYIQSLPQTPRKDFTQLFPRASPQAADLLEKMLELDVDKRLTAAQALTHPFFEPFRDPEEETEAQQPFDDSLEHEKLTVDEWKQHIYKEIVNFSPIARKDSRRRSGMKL
Chain of PRPF4B (human) (Q13523 whole entry, looked up): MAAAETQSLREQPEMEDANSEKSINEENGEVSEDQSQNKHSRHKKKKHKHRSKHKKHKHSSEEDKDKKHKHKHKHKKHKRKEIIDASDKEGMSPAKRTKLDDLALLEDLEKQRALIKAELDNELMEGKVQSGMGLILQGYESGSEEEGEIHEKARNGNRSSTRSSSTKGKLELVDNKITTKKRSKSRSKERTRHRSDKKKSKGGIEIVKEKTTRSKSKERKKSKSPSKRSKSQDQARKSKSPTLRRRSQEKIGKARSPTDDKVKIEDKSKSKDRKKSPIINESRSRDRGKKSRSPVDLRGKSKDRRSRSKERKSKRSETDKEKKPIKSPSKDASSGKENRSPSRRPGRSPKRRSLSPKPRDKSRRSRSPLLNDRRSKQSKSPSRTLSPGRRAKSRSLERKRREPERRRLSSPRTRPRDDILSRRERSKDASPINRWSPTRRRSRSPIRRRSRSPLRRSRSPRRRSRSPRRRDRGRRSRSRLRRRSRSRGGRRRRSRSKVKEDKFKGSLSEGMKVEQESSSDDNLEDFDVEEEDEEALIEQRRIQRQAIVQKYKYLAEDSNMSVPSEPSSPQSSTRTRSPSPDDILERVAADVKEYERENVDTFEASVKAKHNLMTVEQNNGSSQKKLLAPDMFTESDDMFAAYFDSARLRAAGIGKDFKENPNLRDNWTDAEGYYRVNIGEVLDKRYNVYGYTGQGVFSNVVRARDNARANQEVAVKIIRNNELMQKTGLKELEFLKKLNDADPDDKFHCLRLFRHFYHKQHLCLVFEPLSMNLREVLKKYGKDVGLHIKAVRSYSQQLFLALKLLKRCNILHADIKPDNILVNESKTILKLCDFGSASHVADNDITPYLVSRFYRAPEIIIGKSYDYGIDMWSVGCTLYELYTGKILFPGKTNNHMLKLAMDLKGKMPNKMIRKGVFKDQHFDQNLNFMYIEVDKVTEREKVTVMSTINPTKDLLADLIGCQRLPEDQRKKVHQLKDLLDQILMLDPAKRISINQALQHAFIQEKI

Row | Structure (SMILES) | kinase still bound, per cent of control [1] | kinase still bound, per cent of control [2] | kinase still bound, per cent of control [4] | kinase still bound, per cent of control [5] | kinase still bound, per cent of control [6] | kinase still bound, per cent of control [7] | kinase still bound, per cent of control [8] | kinase still bound, per cent of control [9] | kinase still bound, per cent of control [10] | kinase still bound, per cent of control [11] | kinase still bound, per cent of control [12] | kinase still bound, per cent of control [13] | kinase still bound, per cent of control [14] | kinase still bound, per cent of control [15] | kinase still bound, per cent of control [16] | per cent of control [17] | kinase still bound, per cent of control [18] | kinase still bound, per cent of control [19] | kinase still bound, per cent of control [20] | kinase still bound, per cent of control [22] | also measured
1 | CCC(=O)N1CCN(c2ccc(-n3c(=O)ccc4cnc5ccc(-c6cnc7ccccc7c6)cc5c43)cc2C(F)(F)F)CC1 | 98% | 77% | 50% | 80% | 100% | 100% | 16% | 100% | 89% | 7.6% | 83% | 100% | 86% | 39% | 96% | 87% | 48% | 100% | 19% | 99% | kinase still bound, per cent of control [3]: 59%; kinase still bound, per cent of control [21]: 100%; kinase still bound, per cent of control [23]: 96%; kinase still bound, per cent of control [24]: 39%; kinase still bound, per cent of control [25]: 58%; kinase still bound, per cent of control [26]: 74%; kinase still bound, per cent of control [27]: 79%; kinase still bound, per cent of control [28]: 79%; kinase still bound, per cent of control [29]: 93%; per cent of control [30]: 97%; kinase still bound, per cent of control [31]: 99%; kinase still bound, per cent of control [32]: 45%; kinase still bound, per cent of control [33]: 100%; kinase still bound, per cent of control [34]: 100%; kinase still bound, per cent of control [35]: 44%; kinase still bound, per cent of control [36]: 100%; kinase still bound, per cent of control [37]: 100%; kinase still bound, per cent of control [38]: 100%
2 | CC(C)n1nc(-c2cc3cc(O)ccc3[nH]2)c2c(N)ncnc21 | 61% | 0.95% | 10% | 9.8% | 99% | 100% | 40% | 86% | 61% | 84% | 43% | 100% | 0% | 97% | 31% | 57% | 0.8% | 96% | 7.7% | 16% | kinase still bound, per cent of control [39]: 10%; kinase still bound, per cent of control [40]: 2.5%; kinase still bound, per cent of control [41]: 83%; kinase still bound, per cent of control [23]: 2.4%; kinase still bound, per cent of control [24]: 2.4%; kinase still bound, per cent of control [25]: 9.9%; kinase still bound, per cent of control [26]: 67%; kinase still bound, per cent of control [27]: 12%; kinase still bound, per cent of control [28]: 100%; kinase still bound, per cent of control [29]: 53%; per cent of control [30]: 100%; kinase still bound, per cent of control [31]: 100%; kinase still bound, per cent of control [32]: 2.8%; kinase still bound, per cent of control [33]: 100%; kinase still bound, per cent of control [34]: 31%; kinase still bound, per cent of control [35]: 0%; kinase still bound, per cent of control [36]: 0.35%; kinase still bound, per cent of control [37]: 90%; kinase still bound, per cent of control [38]: 86%
3 | COC(=O)Nc1ccc(-c2nc(N3CCOCC3)c3cnn(C4CCN(C(=O)OC)CC4)c3n2)cc1 | 94% | 88% | 86% | 100% | 98% | 98% | 100% | 84% | 77% | 100% | 99% | 100% | 94% | 0% | 100% | 100% | 100% | 85% | 100% | 100% | kinase still bound, per cent of control [3]: 94%; kinase still bound, per cent of control [39]: 91%; kinase still bound, per cent of control [40]: 100%; kinase still bound, per cent of control [41]: 100%; kinase still bound, per cent of control [21]: 100%; kinase still bound, per cent of control [23]: 100%; kinase still bound, per cent of control [24]: 95%; kinase still bound, per cent of control [25]: 12%; kinase still bound, per cent of control [26]: 100%; kinase still bound, per cent of control [27]: 92%; kinase still bound, per cent of control [29]: 95%; per cent of control [30]: 100%; kinase still bound, per cent of control [31]: 96%; kinase still bound, per cent of control [32]: 100%; kinase still bound, per cent of control [33]: 100%; kinase still bound, per cent of control [34]: 100%; kinase still bound, per cent of control [35]: 93%; kinase still bound, per cent of control [36]: 100%; kinase still bound, per cent of control [37]: 100%; kinase still bound, per cent of control [38]: 100%
